Tests used:
Type in all cases: cell-based
A-375 (melanoma) = assay: MTS cell viability assay, A-375
Description: (§1) Cells were plated, the evening before treatment, for each treatment on 96-well plates (1×10^4 cells/well) in 100 μL volume per well. Analog solutions were prepared by diluting each test compound in DSMO (10 mM) with the appropriate cell growth media for each individual cell line, or in “Universal Media” if several cell lines were to be assayed in parallel, immediately prior to cell treatment. Universal Media consisted of 5 mL sodium pyruvate (100× liquid stock, MediaTech), 5 mL glucose (100×, 45% liquid stock, MediaTech), 5 mL Penicillin/Streptomycin (100× liquid stock, MediaTech), 10 mL sodium bicarbonate (50× liquid stock, MediaTech), 25 mL Fetal Calf Serum, 1.25 mL insulin (4 mg/mL, Gibco) and […] RPMI media with 2 mM L-glutamine for a total volume of 500 mL.
(§2) Cells were treated by aspirating plating media from each well and adding 80 μL of betulinic acid (control) or each analog solution in serial dilutions to the adherent cells. All treatments were performed in triplicate. Growth media (80 μL) was added to 3 blank wells (no cells) to measure background from the growth media. Growth media alone (no DMSO or test compound) was added to 3 wells containing cells to measure the baseline MTS activity. Vehicle (DMSO) control in serial dilutions, added to cells, was also included to monitor basal toxicity from DMSO. Cells were incubated at 37° C. for 72 h, or 120 h for the OVCAR cell lines. MTS reagent (per 96-well plate) were prepared by combining 2 mL of MTS working solution (Cell Titer AQueous Non-Radioactive Cell Proliferation Assay, Promega, cat#G1112), 100 μL of 0.92 mg/mL phenazine methosulfate/Dulbecco's PBS and 2.1 mL growth media. MTS reagent (40 μL) were added to each well and incubated at 37° C. for 1.5 to 4 h. Plates were gently shaken by hand until solution in each well appeared homogenous. Absorbances at 490 nm were measured on a Wallac Victor II plate reader at multiple time points following the addition of MTS reagent for each plate. Triplicate absorbance (490 nm) measurements were averaged following background (no cell) subtraction for each drug concentration. Percent Cell Viability was calculated for each drug concentration using the following equation:
(§3) {[Absorbance(analog treated)]/[Absorbance(DMSO treated)]}×100%
(§4) Cytotoxicity dose response for the triterpenoid derivatives synthesized in SK-MEL-2 (melanoma), A-375 (melanoma), Daoy (glioblastoma), LN-229 (glioblastoma), OVCAR-3 (ovarian carcinoma), HT-29 (colon carcinoma), MCF-7 (breast carcinoma) cell lines using the standard MTS assay is summarized in Table 1. In Table 1, compounds 22a-d and compounds 23a-c refer to structures 22 and 23 in Scheme 5, respectively. Compounds 24aa-an and 24ba-bq refer to structure 24 in Scheme 6. Compounds 26a-e refer to structure 26 in Scheme 6. Compounds 36a-c refer to structure 36 in Scheme 10.

SK-MEL-2 (melanoma) = assay: MTS cell viability assay, SK-MEL-2
Description: as §1, §2, §3, §4

MCF-7 (breast carcinoma) = assay: MTS cell viability assay, MCF-7
Description: as §1, §2, §3, §4

LN-229 (glioblastoma) = assay: MTS cell viability assay, LN-229
Description: as §1, §2, §3, §4

HT-29 (colon carcinoma) = assay: MTS cell viability assay, HT-29
Description: as §1, §2, §3, §4

Daoy = assay: MTS cell viability assay, Daoy; settings: cells incubated 72 h
Description: as §1, §2, §3, §4

[1] = Homo sapiens, SK-MEL-2, cells incubated 72 h

Row | Compound | IC50 (SK-MEL-2 (melanoma); [1]) | IC50 (Daoy; Homo sapiens, Daoy) | other results
1 | C=C(CNCCc1ccc(O)cc1)[C@@H]1CC[C@]2(COC3CCCCO3)CC[C@]3(C)[C@H](CC[C@@H]4[C@@]5(C)CCC(=O)C(C)(C)[C@@H]5CC[C@]43C)[C@@H]12 (some centres unmarked) [Compound 22c] | 7 µM | 13 µM | IC50 (A-375 (melanoma); Homo sapiens, A-375, cells incubated 72 h): 6 µM; IC50 (MCF-7 (breast carcinoma); Homo sapiens, MCF7, cells incubated 72 h): 6 µM; IC50 (LN-229 (glioblastoma); Homo sapiens, LN-229, cells incubated 72 h): 8 µM; IC50 (HT-29 (colon carcinoma); Homo sapiens, HT-29, cells incubated 72 h): 4 µM
2 | C=C(COC(C)=O)[C@@H]1CC[C@]2(C=O)CC[C@]3(C)[C@H](CC[C@@H]4[C@@]5(C)CCC(=O)C(C)(C)[C@@H]5CC[C@]43C)[C@@H]12 [Compound 18a] | > 45 µM | > 45 µM | –
3 | C=C(CO)[C@@H]1CC[C@]2(C(=O)O)CC[C@]3(C)[C@H](CC[C@@H]4[C@@]5(C)CCC(=O)C(C)(C)[C@@H]5CC[C@]43C)[C@@H]12 [Compound 17b] | > 45 µM | > 45 µM | –
4 | C=C(CNCCO)[C@@H]1CC[C@]2(COC3CCCCO3)CC[C@]3(C)[C@H](CC[C@@H]4[C@@]5(C)CCC(=O)C(C)(C)[C@@H]5CC[C@]43C)[C@@H]12 (some centres unmarked) [Compound 22a] | 17 µM | 21 µM | –
5 | C=C(CO)[C@@H]1CC[C@]2(C(=O)O)CC[C@]3(C)[C@H](CC[C@@H]4[C@@]5(C)CC[C@H](O)C(C)(C)[C@@H]5CC[C@]43C)[C@@H]12 [Compound 19b] | > 45 µM | > 45 µM | –
6 | C=C(CNCCO)[C@@H]1CC[C@]2(COC3CCCCO3)CC[C@]3(C)[C@H](CC[C@@H]4[C@@]5(C)CCC(NC6CCC(O)CC6)C(C)(C)[C@@H]5CC[C@]43C)[C@@H]12 (some centres unmarked) [Compound 24bi] | – | – | IC50 (SK-MEL-2 (melanoma); cells incubated 72 h): 5 µM; IC50 (Daoy): 5 µM
7 | C=C(C(=O)O)[C@@H]1CC[C@]2(CO)CC[C@]3(C)[C@H](CC[C@@H]4[C@@]5(C)CCC(=O)C(C)(C)[C@@H]5CC[C@]43C)[C@@H]12 [Compound 13b] | > 75 µM | > 75 µM | –
8 | C=C(CO)[C@@H]1CC[C@]2(CO)CC[C@]3(C)[C@H](CC[C@@H]4[C@@]5(C)CC[C@H](O)C(C)(C)[C@@H]5CC[C@]43C)[C@@H]12 [Compound 8a] | > 75 µM | > 75 µM | –
9 | C=C(C(=O)O)[C@@H]1CC[C@]2(COC(C)=O)CC[C@]3(C)[C@H](CC[C@@H]4[C@@]5(C)CCC(=O)C(C)(C)[C@@H]5CC[C@]43C)[C@@H]12 [Compound 13a] | > 45 µM | > 45 µM | –
10 | C=C(CNCCc1ccc(O)cc1)[C@@H]1CC[C@]2(COC3CCCCO3)CC[C@]3(C)[C@H](CC[C@@H]4[C@@]5(C)CCC(N)C(C)(C)[C@@H]5CC[C@]43C)[C@@H]12 (some centres unmarked) [Compound 24bn] | 5 µM | 2 µM | –
11 | C=C(CO)[C@@H]1CC[C@]2(C=O)CC[C@]3(C)[C@H](CC[C@@H]4[C@@]5(C)CCC(=O)C(C)(C)[C@@H]5CC[C@]43C)[C@@H]12 [Compound 18b] | > 75 µM | > 75 µM | –
12 | C=C(CNCCO)[C@@H]1CC[C@]2(CO)CC[C@]3(C)[C@H](CC[C@@H]4[C@@]5(C)CCC(O)C(C)(C)[C@@H]5CC[C@]43C)[C@@H]12 (some centres unmarked) [Compound 23b] | 15 µM | 35 µM | –
13 | C=C(CNCCO)[C@@H]1CC[C@]2(CO)CC[C@]3(C)[C@H](CC[C@@H]4[C@@]5(C)CCC(NCCO)C(C)(C)[C@@H]5CC[C@]43C)[C@@H]12 (some centres unmarked) [Compound 24bh] | – | – | IC50 (A-375 (melanoma); cells incubated 72 h): 6 µM; IC50 (SK-MEL-2 (melanoma); cells incubated 72 h): 7 µM; IC50 (MCF-7 (breast carcinoma); cells incubated 72 h): 6 µM; IC50 (LN-229 (glioblastoma); cells incubated 72 h): 16 µM; IC50 (HT-29 (colon carcinoma); cells incubated 72 h): 2 µM; IC50 (Daoy): 13 µM
14 | C=C(C(=O)O)[C@@H]1CC[C@]2(C(=O)O)CC[C@]3(C)[C@H](CC[C@@H]4[C@@]5(C)CCC(=O)C(C)(C)[C@@H]5CC[C@]43C)[C@@H]12 [Compound 11] | > 75 µM | > 75 µM | –
15 | CC(CNCCO)[C@@H]1CC[C@]2(CO)CC[C@]3(C)[C@H](CC[C@@H]4[C@@]5(C)CCC(O)C(C)(C)[C@@H]5CC[C@]43C)[C@@H]12 (some centres unmarked) [Compound 36b] | 16 µM | 54 µM | –

— patent publication US20090062243A1, “Lupane-Type Triterpenoids Modified at 30-Position and Analogues Thereof” (ADVANCED LIFE SCIENCES, INC., priority 2007, published 2009)
